According to US20160120848A1, “SPECIFIC CANCER TREATMENT REGIMES WITH GANETESPIB” (SYNTA PHARMACEUTICALS CORP., priority 2013, published 2016):

Key:
[1] = test system: ovarian, fallopian tube or peritoneal cancer; assay: Phase I/II study of ganetespib in combination with paclitaxel; assay type: in vivo; conditions: combination with weekly paclitaxel 80 mg/m^2
Protocol: A Phase I/II trial of weekly paclitaxel in combination with ganetespib in patients with recurrent, platinum-resistant ovarian, fallopian tube or primary peritoneal cancer is performed. A total of up to 74 patients (up to 18 Phase I patients and up to 56 Phase II patients) with recurrent, platinum-resistant epithelial ovarian, primary peritoneal and fallopian tube carcinoma is enrolled.
Phase I Treatment: Paclitaxel IV given over 1 hour at 80 mg/m^2 days 1, 8 and 15 of a 28-day cycle. Ganetespib IV at a starting dose of 100 mg/m^2 on days 1, 8 and 15 of a 28-day cycle. Ganetespib escalation will follow a modified 3+3 design and escalate from 100 mg/m^2 to 125 mg/m^2 to 150 mg/m^2.
Phase II treatment (after MTD): Phase II TPaclitaxel IV given over 1 hour at 80 mg/m^2 days 1, 8 and 15 of a 28-day cycle. PLUS ganetespib IV at MTD/MED from Phase I on days 1, 8 and 15 of a 28-day cycle.

[2] = test system: inflammatory breast cancer; assay: Phase 1b study of ganetespib with doxorubicin, cyclophosphamide and docetaxel; assay type: in vivo, patients; conditions: combination with doxorubicin
Excerpt: This is an open-label, multicenter, Phase 1b, dose-escalation study in patients with locally advanced and inflammatory breast cancer. The purpose of the study is to test the safety and tolerability of ganetespib in patients with operable breast cancer.
Eligible patients must be treatment naïve with histologic confirmation of breast adenocarcinoma, and a tumor that is readily accessible for sequential biopsy. Before the study, patients undergo a complete physical examination, laboratory investigations, chest x-ray, a mammogram and a breast ultrasonography and other imaging studies (e.g., MRI, PET-CT, or mammogram) to determine the local extent of the disease. Abdominal CT scan is performed to exclude metastatic disease. The methods used to document baseline status must be consistently used throughout the study. Prior to entering the study, HER2 status of the tumor is determined by the local lab.
A pharmacodynamics phase consists of ganetespib single agent given at a dose of 150 mg/m^2 twice for 1 week prior to start of dose escalation phase (approximately on Days −7 and −4). A pre-dose tumor biopsy is obtained within 15+/−3 days prior to initiating treatment with ganetespib. A post-treatment […] is obtained on Day −4, to evaluate the effects of ganetespib on downstream effectors regulating tumor proliferation and survival, as well as potential effects on HIF1-transcriptional activity. […]

[3] = test system: complex between Hsp90 and mutant p53; assay: Preclinical study of Hsp90 inhibition by ganetespib in mutant p53 cells; assay type: cell-based

## CC(C)c1cc(-c2n[nH]c(=O)n2-c2ccc3c(ccn3C)c2)c(O)cc1O [ganetespib]
[1]
  efficacy: efficacious
  safety profile: good safety profile
[2]
  efficacy: efficacious
  safety profile: good safety profile
[3]
  anti-cancer activity: potent anti-cancer activity
  anti-cancer activity in cells with mutant p53 compared with other cells: substantially stronger in cells with mutant p53
  effect on complex between Hsp90 and mutant p53: destroyed the complex between Hsp90 and mutant p53
  effect on mutant p53 protein: inducing the degradation of mutant p53
[3]; inhibition of Hsp90
  sensitization of mutant p53 cancer cells to treatment with chemotherapies: strongly sensitize
